Reference: patent US20120301895A1, “METHODS OF MODULATING BINDING OF SON OF SEVENLESS TO PHOSPHATIDIC ACID AND IDENTIFYING COMPOUNDS THAT MODULATE SUCH BINDING” (THE RESEARCH FOUNDATION OF STATE UNIVERSITY OF NEW YORK, priority 2007, published 2012)

Biological target: T1, PLD1 (Homo sapiens, UniProt Q13393)
T1 construct: made in house
T1 sequence (Q13393 1-1074): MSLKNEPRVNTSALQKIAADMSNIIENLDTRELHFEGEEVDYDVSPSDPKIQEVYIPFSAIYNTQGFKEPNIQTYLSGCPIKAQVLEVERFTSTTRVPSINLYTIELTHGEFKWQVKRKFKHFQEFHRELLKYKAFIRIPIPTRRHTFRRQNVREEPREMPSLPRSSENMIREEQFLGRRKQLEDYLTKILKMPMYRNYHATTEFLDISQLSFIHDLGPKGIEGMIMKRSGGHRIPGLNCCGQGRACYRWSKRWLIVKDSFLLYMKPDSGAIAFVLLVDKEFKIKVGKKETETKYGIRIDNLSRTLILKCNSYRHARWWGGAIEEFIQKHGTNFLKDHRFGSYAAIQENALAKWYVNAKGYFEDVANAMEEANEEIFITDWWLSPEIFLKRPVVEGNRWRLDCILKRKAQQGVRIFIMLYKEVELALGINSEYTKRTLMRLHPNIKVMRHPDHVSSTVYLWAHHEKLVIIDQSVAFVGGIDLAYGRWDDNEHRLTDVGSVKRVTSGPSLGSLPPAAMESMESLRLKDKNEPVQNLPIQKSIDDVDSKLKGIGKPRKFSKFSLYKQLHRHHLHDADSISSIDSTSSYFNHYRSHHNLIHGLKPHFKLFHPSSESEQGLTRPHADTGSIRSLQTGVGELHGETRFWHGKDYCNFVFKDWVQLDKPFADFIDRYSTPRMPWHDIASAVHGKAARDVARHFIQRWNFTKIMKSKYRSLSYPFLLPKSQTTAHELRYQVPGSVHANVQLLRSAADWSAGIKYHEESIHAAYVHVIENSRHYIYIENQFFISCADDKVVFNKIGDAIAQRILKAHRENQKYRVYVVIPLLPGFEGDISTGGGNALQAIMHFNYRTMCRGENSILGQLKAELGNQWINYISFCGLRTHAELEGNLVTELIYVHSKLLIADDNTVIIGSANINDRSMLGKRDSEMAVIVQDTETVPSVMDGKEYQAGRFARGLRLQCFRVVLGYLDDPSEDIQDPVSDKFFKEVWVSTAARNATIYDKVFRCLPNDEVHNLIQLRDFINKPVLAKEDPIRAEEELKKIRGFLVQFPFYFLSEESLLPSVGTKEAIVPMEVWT
Experiment: In vitro PLD activity, exogenous substrate assay, PLD1
Type: biochemical
Details: purified recombinant PLD1 with ARF-1, 30 min at 37° C.
Method: In FIG. 13A, MDA-MB-231 cells were plated as in FIGS. 12A-C and then shifted to either 10% serum or 0.5% serum overnight as indicated. Honokiol (20 μM) or control ethanol was then added for 4 hr as indicated, at which time the cells were harvested and the levels of PBt were determined as in FIGS. 12A-C. The experiment shown is representative of at least three independent experiments. In FIG. 13B, the effect of honokiol on the activity of PLD isoforms was measured using exogenous substrate assay as described previously (Henage et al., “Kinetic Analysis of a Mammalian Phospholipase D: Allosteric Modulation by Monomeric GTPases, Protein Kinase C, and Polyphosphoinositides,” J. Biol. Chem. 281:3408-17 (2006), which is hereby incorporated by reference in its entirety). […] The amount of background was determined and subtracted using a bovine serum albumin standard. […]
For in vivo PLD activity, cells were plated in 60 mm culture dishes in DMEM with 10% serum at a density that would allow them to grow to about 80% confluence after 2 days, then cells were shifted to DMEM containing 0.5% or 10% serum as indicated in the figure legends overnight. […] Briefly, PLD activity was measured by the release of [methyl-^3H] choline from [choline-methyl-^3H]dipalmitoyl-phosphatidylcholine. […]

Compound: C=CCc1ccc(O)c(-c2ccc(O)c(CC=C)c2)c1 [honokiol, Honokiol]
- in vitro activity of PLD1: no significant effect
